In the data set the test system is CCRIS mutagenicity, Ames/micronucleus/aberration tests. Description: CCRIS mutagenicity studies.
Setting [1] is: Test System: AMES SALMONELLA TYPHIMURIUM, Strain/Indicator: TA100, Metabolic Activation: NONE, Method: PREINCUBATION
The mark [2] stands for this setting: Test System: AMES SALMONELLA TYPHIMURIUM, Strain/Indicator: TA100, Metabolic Activation: NONE, Method: STANDARD PLATE.
Setting [3] is: Test System: AMES SALMONELLA TYPHIMURIUM, Strain/Indicator: TA98, Metabolic Activation: NONE, Method: PREINCUBATION
[4] abbreviates: Test System: AMES SALMONELLA TYPHIMURIUM, Strain/Indicator: TA1535, Metabolic Activation: NONE, Method: PREINCUBATION
Setting [5] is: Test System: AMES SALMONELLA TYPHIMURIUM, Strain/Indicator: TA1537, Metabolic Activation: NONE, Method: PREINCUBATION
Where [6] appears, read: Test System: AMES SALMONELLA TYPHIMURIUM, Strain/Indicator: TA98, Metabolic Activation: NONE, Method: STANDARD PLATE.
[7] abbreviates: Test System: AMES SALMONELLA TYPHIMURIUM, Strain/Indicator: TA98, Metabolic Activation: RAT, LIVER, S-9, AROCLOR 1254, Method: STANDARD PLATE.
[8] abbreviates: Test System: AMES SALMONELLA TYPHIMURIUM, Strain/Indicator: TA100, Metabolic Activation: RAT, LIVER, S-9, AROCLOR 1254, Method: STANDARD PLATE.

Active and inactive are the calls of the source. The rule behind the calls is not given here.

`N[C@@H](CS/C(Cl)=C(\Cl)C(Cl)=C(Cl)Cl)C(=O)O`: the mutagenic call runs as follows: under setting [1], “active; positive”; under setting [2], “active; positive”; (Test System: AMES SALMONELLA TYPHIMURIUM, Strain/Indicator: TA100, Metabolic Activation: RAT, KIDNEY, S-9, AROCLOR 1254, Method: STANDARD PLATE) “active; positive”; (Test System: AMES SALMONELLA TYPHIMURIUM, Strain/Indicator: TA2638, Metabolic Activation: NONE, Method: PREINCUBATION) “active; positive”.
For the molecule `CCOc1ccccc1[N+](=O)[O-]`, the mutagenic call was “inactive; negative” under setting [3]; “active; positive” under setting [1]; “active; positive” under setting [4]; “inactive; negative” under setting [5]; “inactive; negative” (Test System: AMES SALMONELLA TYPHIMURIUM, Strain/Indicator: TA1538, Metabolic Activation: NONE, Method: PREINCUBATION).
For the molecule `ClCc1ccccc1CCl`, the mutagenic call under setting [6] was “inactive; negative”.
On to `O=C1NC(=O)C(CCl)=C1Cl`, for which, under setting [2], the mutagenic call was “active; positive”.
For `CC(=O)N(O)c1ccccc1C`, the mutagenic call was “inactive; negative” under setting [6], “active; positive” under setting [7], “inactive; negative” under setting [2] and “inactive; negative” under setting [8].
As for `CCC(C)COC(=O)/C=C/c1ccc(N=Cc2ccc(OC)cc2)cc1` (stereo not given), the mutagenic call is “inactive; negative” (Test System: AMES SALMONELLA TYPHIMURIUM, Strain/Indicator: TA98, Metabolic Activation: HAMSTER, LIVER, S-9, AROCLOR 1254 (30%), Method: PREINCUBATION); “inactive; negative” under setting [3]; “active; positive” (Test System: AMES SALMONELLA TYPHIMURIUM, Strain/Indicator: TA98, Metabolic Activation: RAT, LIVER, S-9, AROCLOR 1254 (30%), Method: PREINCUBATION); “active; positive” (Test System: AMES SALMONELLA TYPHIMURIUM, Strain/Indicator: TA100, Metabolic Activation: HAMSTER, LIVER, S-9, AROCLOR 1254 (30%), Method: PREINCUBATION); “inactive; negative” under setting [1]; “active; positive” (Test System: AMES SALMONELLA TYPHIMURIUM, Strain/Indicator: TA100, Metabolic Activation: RAT, LIVER, S-9, AROCLOR 1254 (30%), Method: PREINCUBATION).
As to `Cc1cc(C)c2ccc3ccccc3c2c1`, the mutagenic call reads like this: under setting [6], “inactive; negative”; under setting [7], “active; positive”; under setting [2], “inactive; negative”; under setting [8], “active; positive”.
Consider `ClCC(Cl)CCl`, for which the mutagenic call by setting is: (End Point: IN VITRO CHROMOSOMAL ABERRATIONS, Test System: CHL CELLS, Metabolic Activation: NONE) “inactive; negative”; (End Point: IN VITRO CHROMOSOMAL ABERRATIONS, Test System: CHL CELLS, Metabolic Activation: RAT, LIVER, S-9, SODIUM PHENOBARBITAL AND 5,6-BENZOFLAVONE) “active; positive (structural changes)”; (Test System: AMES SALMONELLA TYPHIMURIUM, Strain/Indicator: TA97, Metabolic Activation: HAMSTER, LIVER, S-9, AROCLOR 1254 (10%), Method: PREINCUBATION) “active; positive”; (Test System: AMES SALMONELLA TYPHIMURIUM, Strain/Indicator: TA97, Metabolic Activation: NONE, Method: PREINCUBATION) “inactive; negative”; (Test System: AMES SALMONELLA TYPHIMURIUM, Strain/Indicator: TA97, Metabolic Activation: RAT, LIVER, S-9, AROCLOR 1254 (10%), Method: PREINCUBATION) “active; positive”; (Test System: AMES SALMONELLA TYPHIMURIUM, Strain/Indicator: TA98, Metabolic Activation: HAMSTER, LIVER, S-9, AROCLOR 1254 (10%), Method: PREINCUBATION) “active; positive”. Moreover, the mutagenic call is “inactive; negative” (Test System: AMES SALMONELLA TYPHIMURIUM, Strain/Indicator: TA98, Metabolic Activation: HAMSTER, LIVER, S-9, AROCLOR 1254, Method: PREINCUBATION); “inactive; negative” under setting [3]; “inactive; negative” (Test System: AMES SALMONELLA TYPHIMURIUM, Strain/Indicator: TA98, Metabolic Activation: RAT, LIVER, S-9, AROCLOR 1254, Method: PREINCUBATION); “active; positive” (Test System: AMES SALMONELLA TYPHIMURIUM, Strain/Indicator: TA100, Metabolic Activation: HAMSTER, LIVER, S-9, AROCLOR 1254 (10%), Method: PREINCUBATION); “active; positive” (Test System: AMES SALMONELLA TYPHIMURIUM, Strain/Indicator: TA100, Metabolic Activation: HAMSTER, LIVER, S-9, AROCLOR 1254, Method: PREINCUBATION); “inactive; negative” under setting [1]. For the same molecule, the mutagenic call was “active; positive” (Test System: AMES SALMONELLA TYPHIMURIUM, Strain/Indicator: TA100, Metabolic Activation: RAT, LIVER, MICROSOMES, PHENOBARBITAL, NADPH COFACTORS, Method: STANDARD PLATE); “inactive; negative” (Test System: AMES SALMONELLA TYPHIMURIUM, Strain/Indicator: TA100, Metabolic Activation: RAT, LIVER, MICROSOMES, PHENOBARBITAL, Method: STANDARD PLATE); “active; positive” (Test System: AMES SALMONELLA TYPHIMURIUM, Strain/Indicator: TA100, Metabolic Activation: RAT, LIVER, S-9, AROCLOR 1254 (10%), Method: PREINCUBATION); “active; positive” (Test System: AMES SALMONELLA TYPHIMURIUM, Strain/Indicator: TA100, Metabolic Activation: RAT, LIVER, S-9, AROCLOR 1254, Method: PREINCUBATION); “active; positive” (Test System: AMES SALMONELLA TYPHIMURIUM, Strain/Indicator: TA1535, Metabolic Activation: HAMSTER, LIVER, S-9, AROCLOR 1254 (10%), Method: PREINCUBATION); “active; positive” (Test System: AMES SALMONELLA TYPHIMURIUM, Strain/Indicator: TA1535, Metabolic Activation: HAMSTER, LIVER, S-9, AROCLOR 1254, Method: PREINCUBATION). Further, the mutagenic call by setting is: under setting [4], “inactive; negative”; (Test System: AMES SALMONELLA TYPHIMURIUM, Strain/Indicator: TA1535, Metabolic Activation: RAT, LIVER, S-9, AROCLOR 1254 (10%), Method: PREINCUBATION) “active; positive”; (Test System: AMES SALMONELLA TYPHIMURIUM, Strain/Indicator: TA1535, Metabolic Activation: RAT, LIVER, S-9, AROCLOR 1254, Method: PREINCUBATION) “active; positive”; (Test System: AMES SALMONELLA TYPHIMURIUM, Strain/Indicator: TA1537, Metabolic Activation: HAMSTER, LIVER, S-9, AROCLOR 1254 (10%), Method: PREINCUBATION) “inactive; negative”; under setting [5], “inactive; negative”; (Test System: AMES SALMONELLA TYPHIMURIUM, Strain/Indicator: TA1537, Metabolic Activation: RAT, LIVER, S-9, AROCLOR 1254 (10%), Method: PREINCUBATION) “inactive; negative”. The mutagenic call by setting is: (Test System: AMES SALMONELLA TYPHIMURIUM, Strain/Indicator: TA1537, Metabolic Activation: RAT, LIVER, S-9, AROCLOR 1254, Method: PREINCUBATION) “inactive; negative”; (Test System: MOUSE LYMPHOMA, Strain/Indicator: L5178Y (TK+/TK-), Metabolic Activation: NONE, Method: SUSPENSION/PLATE) “inactive; negative”; (Test System: MOUSE LYMPHOMA, Strain/Indicator: L5178Y (TK+/TK-), Metabolic Activation: RAT, LIVER, S-9, AROCLOR 1254, Method: SUSPENSION/PLATE) “active; positive”.
Consider `Cc1ccc(NC(=O)c2ccc(CN3CCN(C)CC3)cc2)cc1Nc1nccc(-c2cccnc2)n1`, for which the mutagenic call was “active; positive (structural and numerical changes)” (End Point: IN VITRO CHROMOSOMAL ABERRATIONS, Test System: CHINESE HAMSTER EMBRYO (CHE), Metabolic Activation: NONE); “active; positive (numerical changes)” (End Point: IN VITRO CHROMOSOMAL ABERRATIONS, Test System: INDIAN MUNTJAK FIBROBLASTS (IMF), Metabolic Activation: NONE); “active; positive (structural changes)” (End Point: IN VITRO CHROMOSOMAL ABERRATIONS, Test System: NORMAL HUMAN DERMAL FIBROBLASTS (NHDF), Metabolic Activation: NONE).

The values above are taken from PubChem BioAssay AID1259407 (Chemical Carcinogenesis Research Information System (CCRIS), 2018).
